This is an account of results in patent US11890288B2, “Sulfonamide or sulfinamide compound having effect of inducing BRD4 protein degradation and pharmaceutical use thereof” (MITSUBISHI TANABE PHARMA CORPORATION, priority 2020, dated 2024).

One assay concerns the target BRD4 protein (Homo sapiens (Human), UniProt O60885). Put plainly: BRD4 protein degradation inducing action in LNCaP cells (immunofluorescence, 6 hr). Format: cell-based. The following applies: anti-BRD4 fluorescence intensity. The method, then:
The degradation inducing action of the compound of the present invention on BRD4 proteins in cancer cells was evaluated in vitro using human prostate cancer LNCaP cells. LNCaP cells were suspended in 10% FBS/RPMI1640, seeded in a 96 well Cell carrier plate (Perkin Elmer) and cultured at 5% CO2, 37° C. overnight. A test compound dissolved in DMSO was diluted with 10% FBS/RPMI1640 and added and the cells were further cultured for 6 hr. After culturing, the cells were immobilized with 4% para-formaldehyde/PBS and further subjected to a permeation treatment with 0.25% Triton X-100/PBS. Thereafter, the cells were blocked with 10% BSA/PBS, Anti-BRD4 (Sigma-Aldrich) solution was added and the cells were incubated at 4° C. overnight. Furthermore, Goat anti-Rabbit IgG(H+L) Cross-Adsorbed Secondary Antibody, Alexa Fluor 546 (Thermo Fisher Scientific) solution, 0.5 μg/mL Hoechst 33342 (Sigma-Aldrich), and 14 μM Acti-Stain 555 Fluorescent Phalloidin (Cytoskeleton) were added. After incubation for 1 hr, BRD4 protein amount was measured by Operetta (Perkin Elmer) as fluorescence intensity (excitation: 560 nm, emission: 572 nm). The BRD4 protein degradation inducing activity of the compound of the present invention in LNCaP cells is shown in DC50 value in Table 3. The DC50 value is a concentration of the compound showing 50% fluorescence intensity when the fluorescence intensity thereof under compound untreated condition is 100%. It was calculated from the straight line connecting the fluorescence intensity at two points enclosing the 50% fluorescence intensity and the compound concentration.

The subject of assay [1] is human prostate cancer LNCaP cells. As to the kind of experiment: Cytotoxic action on LNCaP cells (WST-8, 96 hr). The class given is cell-based. The following applies: 96 hr culture. The procedure: The cytotoxic action of the compound of the present invention against human cancer cells was evaluated in vitro. In this experiment, (+)-JQ1 (Nature volume 468, pages 1067-1073 (23 Dec. 2010)) known to have an inhibitory activity on the binding of BRD4 protein and a ligand therefor was used as a positive control drug. Respective cells were suspended in 10% FBS/RPMI1640, seeded in a 96 well plate and cultured at 5% CO2, 37° C. overnight. A test compound dissolved in DMSO was diluted with 10% FBS/RPMI1640 and added and the cells were further cultured for 96 hr. After culturing, the viable cell number was measured using a cell number measurement WST-8 kit (Kishida Chemical Co., Ltd.). As a control, the measurement was performed under conditions free of the test compound. The cytotoxic activity of the compound of the present invention against human prostate cancer LNCaP cells is shown in IC50 value in Table 1. The IC50 value is a concentration of the compound showing 50% cell survival rate when the cell survival rate thereof under compound untreated condition is 100%. It was calculated from the straight line connecting the cell survival rate at two points enclosing the 50% cell survival rate and the compound concentration. In addition, the cytotoxic activity against respective cancer cells of human acute myeloid leukemia MV-4-11 cell, human chronic myeloid leukemia K562 cell, human multiple myeloma MM.1S cell, human diffuse large B-cell lymphoma SU-DHL-6 cell, human T-cell leukemia Jurkat cells, human Burkitt lymphoma Raji cell, human castration-resistant prostate cancer PC-3 cell, human AR-V7 positive castration-resistant prostate cancer 22Rv1 cell, human ovarian cancer A2780 cell, human cisplatin-resistant ovarian cancer SK-OV-03 cell, human bladder cancer 5637 cell, human breast cancer ZR-75-1 cell, human triple negative breast cancer MDA-MB-231 cell, human uterus cervix cancer HeLa cell, human uterine sarcoma MES-SA cell, human stomach cancer SNU-16 cell, human non-small cell lung cancer NCI-H2126 cell, human EGFRT790M mutation-positive non-small cell lung cancer NCI-H1975 cell, human small cell lung cancer NCI-H82 cell, human large cell lung cancer NCI-H460 cell, human colon cancer HCT116 cell, human glioma U-87 MG cell, human pancreatic cancer BxPC-3 cell, human liver cancer HLF cell, human bile duct cancer HuCCT1 cell, human renal cell cancer 786-O cell, and human fibrosarcoma HT1080 cell is shown in IC50 value in Table 2.
On the technique in general: Formazan colour is commonly taken as a measure of viable cells.

Molecules are shown by their SMILES.

The DC50 is the concentration at which degradation of the target reaches its halfway point. Low readings indicate degradation at low concentration, high ones degradation only at high concentration. A word on the IC50: it is the concentration that inhibits the measured activity by half. Low readings indicate higher potency, high ones lower potency. As to `COC(=O)C[C@@H]1N=C(c2ccc(-c3ccc(C(=O)NCc4ccc(S(=O)(=O)Nc5ccc(C)c6c(C#N)c[nH]c56)cc4)cc3)cc2)c2c(sc(CO)c2C)-n2c(C)nnc21` [Example 55, methyl [(6S)-4-{4′-[({4-[(3-cyano-4-methyl-1H-indol-7-yl)sulfamoyl]phenyl}methyl)carbamoyl][1,1′-biphenyl]-4-yl}-2-(hydroxymethyl)-3,9-dimethyl-6H-thieno[3,2-f][1,2,4]triazolo[4,3-a][1,4]diazepin-6-yl]acetate], it took 1.4 nM to reach half-maximal degradation on BRD4 protein (DC50). Besides, inhibition in assay [1] was half-maximal at 3 nM (IC50).

`CCc1ccc(NS(=O)(=O)c2ccc([C@@H](C)NC(=O)c3ccc(-c4ccc(C5=N[C@@H](CC(=O)OC)c6nnc(C)n6-c6sc(C)c(C)c65)cc4)c(F)c3)cc2)c2[nH]cc(C#N)c12` [Example Compound 121, methyl [(6S)-4-(4′-{[(1R)-1-{4-[(3-cyano-4-ethyl-1H-indol-7-yl)sulfamoyl]phenyl}ethyl]carbamoyl}-2′-fluoro[1,1′-biphenyl]-4-yl)-2,3,9-trimethyl-6H-thieno[3,2-f][1,2,4]triazolo[4,3-a][1,4]diazepin-6-yl]acetate] came in with a DC50 on BRD4 protein of 0.17 nM. In assay [1], the midpoint of inhibition, the IC50, lay at 0.22 nM.

In turn, `COC(=O)C[C@@H]1N=C(c2ccc(-c3ccc(C(=O)NCCc4ccc(S(=O)(=O)Nc5ccc(C)c6c(C#N)c[nH]c56)cc4)c(F)c3F)cc2)c2c(sc(C)c2C)-n2c(C)nnc21` [Example 100, methyl [(6S)-4-{4′-[(2-{4-[(3-cyano-4-methyl-1H-indol-7-yl)sulfamoyl]phenyl}ethyl)carbamoyl]-2′,3′-difluoro[1,1′-biphenyl]-4-yl}-2,3,9-trimethyl-6H-thieno[3,2-f][1,2,4]triazolo[4,3-a][1,4]diazepin-6-yl]acetate] gave a DC50 on BRD4 protein of 0.085 nM. The compound further had an IC50 in assay [1] of 0.16 nM.

On to `CCc1ccc(NS(=O)(=O)c2ccc(CCNC(=O)c3ccc(-c4ccc(C5=N[C@@H](CC(=O)OC)c6nnc(C)n6-c6sc(C)c(C)c65)cc4)cn3)cc2)c2[nH]cc(C#N)c12` [Example 110, methyl [(6S)-4-(4-{6-[(2-{4-[(3-cyano-4-ethyl-1H-indol-7-yl)sulfamoyl]phenyl}ethyl)carbamoyl]pyridin-3-yl}phenyl)-2,3,9-trimethyl-6H-thieno[3,2-f][1,2,4]triazolo[4,3-a][1,4]diazepin-6-yl]acetate], for which it took 0.063 nM to reach half-maximal degradation at BRD4 protein (DC50). This compound also showed an IC50 in assay [1] of 0.28 nM.

For `COC(=O)C[C@@H]1N=C(c2ccc(-c3ccc(C(=O)NCCc4ccc(S(=O)(=O)Nc5ccc(C)c6c(C#N)c[nH]c56)cc4)cc3C)cc2)c2c(sc(C)c2C)-n2c(C)nnc21` [Example 89, methyl [(6S)-4-{4′-[(2-{4-[(3-cyano-4-methyl-1H-indol-7-yl)sulfamoyl]phenyl}ethyl)carbamoyl]-2′-methyl [1,1′-biphenyl]-4-yl}-2,3,9-trimethyl-6H-thieno[3,2-f][1,2,4]triazolo[4,3-a][1,4]diazepin-6-yl]acetate], at BRD4 protein, half-maximal degradation (DC50) was put at 0.8 nM. The compound further had an IC50 in assay [1] of 0.33 nM.

For the compound `COC(=O)C[C@@H]1N=C(c2ccc(C#CC(=O)NCc3ccc(S(=O)(=O)Nc4ccc(C)c5c(C#N)c[nH]c45)cc3)cc2)c2c(sc(C)c2C)-n2c(C)nnc21` [Example 5, methyl [(6S)-4-(4-{3-[({4-[(3-cyano-4-methyl-1H-indol-7-yl)sulfamoyl]phenyl}methyl)amino]-3-oxoprop-1-yn-1-yl}phenyl)-2,3,9-trimethyl-6H-thieno[3,2-f][1,2,4]triazolo[4,3-a][1,4]diazepin-6-yl]acetate], the DC50 on BRD4 protein was determined as 15 nM. In assay [1], the IC50 came to 4.1 nM.

For the compound `COC(=O)C[C@@H]1N=C(c2ccc(-c3ccc(C(=O)N[C@H](C)c4ccc(S(=O)(=O)Nc5ccc(C)c6c(C#N)c[nH]c56)cc4)cc3F)cc2)c2c(sc(C)c2C)-n2c(C)nnc21` [Example 85, methyl [(6S)-4-(4′-{[(1R)-1-{4-[(3-cyano-4-methyl-1H-indol-7-yl)sulfamoyl]phenyl}ethyl]carbamoyl}-2′-fluoro[1,1′-biphenyl]-4-yl)-2,3,9-trimethyl-6H-thieno[3,2-f][1,2,4]triazolo[4,3-a][1,4]diazepin-6-yl]acetate], at BRD4 protein, the DC50 was determined as 0.074 nM. This compound also returned an IC50 in assay [1] of 0.26 nM.

`Cc1sc2c(c1C)C(c1ccc(-c3ccc(C(=O)NCc4ccc(S(=O)(=O)Nc5ccc(C)c6c(C#N)c[nH]c56)cc4)cc3)cc1)=N[C@@H](CC(=O)OC(C)C)c1nnc(C)n1-2` [Example Compound 131, isopropyl [(6S)-4-{4′-[({4-[(3-cyano-4-methyl-1H-indol-7-yl)sulfamoyl]phenyl}methyl)carbamoyl][1,1′-biphenyl]-4-yl}-2,3,9-trimethyl-6H-thieno[3,2-f][1,2,4]triazolo[4,3-a][1,4]diazepin-6-yl]acetate] registered a half-maximal degradation concentration (DC50) at BRD4 protein of 0.035 nM. Also, it took 0.065 nM to reach half-maximal inhibition in assay [1] (IC50).

`CCc1ccc(NS(=O)(=O)c2ccc(CNC(=O)c3ccc(-c4ccc(C5=N[C@@H](CC(=O)OC(C)(C)C)c6nnc(C)n6-c6sc(C)c(C)c65)cc4)cc3)cc2)c2[nH]cc(C#N)c12` [Example Compound 135, t-butyl [(6S)-4-{4′-[({4-[(3-cyano-4-ethyl-1H-indol-7-yl)sulfamoyl]phenyl}methyl)carbamoyl][1,1′-biphenyl]-4-yl}-2,3,9-trimethyl-6H-thieno[3,2-f][1,2,4]triazolo[4,3-a][1,4]diazepin-6-yl]acetate] showed a DC50 on BRD4 protein of 0.38 nM. Also, in assay [1], the midpoint of inhibition, the IC50, lay at 0.66 nM.

With `CCOC(=O)C[C@@H]1N=C(c2ccc(-c3ccc(C(=O)NCc4ccc(S(=O)(=O)Nc5ccc(C)c6c(C#N)c[nH]c56)cc4)cc3)cc2)c2c(sc(C)c2C)-n2c(C)nnc21` [Example Compound 129, ethyl [(6S)-4-{4′-[({4-[(3-cyano-4-methyl-1H-indol-7-yl)sulfamoyl]phenyl}methyl)carbamoyl][1,1′-biphenyl]-4-yl}-2,3,9-trimethyl-6H-thieno[3,2-f][1,2,4]triazolo[4,3-a][1,4]diazepin-6-yl]acetate], half-maximal degradation at BRD4 protein (DC50) was put at 0.033 nM. Further, it took 0.048 nM to reach half-maximal inhibition in assay [1] (IC50).

With `COC(=O)C[C@@H]1N=C(c2ccc(-c3ccc(C(=O)N[C@H](C)c4ccc(S(=O)(=O)Nc5ccc(C)c6c(C#N)c[nH]c56)cc4)cc3C)cc2)c2c(sc(C)c2C)-n2c(C)nnc21` [Example 88, methyl [(6S)-4-(4′-{[(1R)-1-{4-[(3-cyano-4-methyl-1H-indol-7-yl)sulfamoyl]phenyl}ethyl]carbamoyl}-2′-methyl[1,1′-biphenyl]-4-yl)-2,3,9-trimethyl-6H-thieno[3,2-f][1,2,4]triazolo[4,3-a][1,4]diazepin-6-yl]acetate], at BRD4 protein, the DC50 stood at 0.37 nM. This compound also registered an IC50 in assay [1] of 0.17 nM.

Turning to `COC(=O)C[C@@H]1N=C(c2ccc(-c3ccc(C(=O)NCCc4ccc(S(=O)(=O)Nc5ccc(C)c6c(C#N)c[nH]c56)cc4)c(Cl)c3)cc2)c2c(sc(C)c2C)-n2c(C)nnc21` [Example 41, methyl [(6S)-4-{3′-chloro-4′-[(2-{4-[(3-cyano-4-methyl-1H-indol-7-yl)sulfamoyl]phenyl}ethyl)carbamoyl][1,1′-biphenyl]-4-yl}-2,3,9-trimethyl-6H-thieno[3,2-f][1,2,4]triazolo[4,3-a][1,4]diazepin-6-yl]acetate], the half-maximal degradation concentration (DC50) on BRD4 protein came to 0.41 nM. Half-maximal inhibition in assay [1] (IC50) required 1.1 nM.
